The text below walks through data of patent US20240209028A1, “CNP COMPOUNDS” (priority 2022, published 2024).

Starred links: 1 amine or outer side, 2 acyl side, 3 side chain; linkers in the order of their positions; H or OH if unused. Positions of bridges follow the written chain, without caps; N, C: chain ends. Residues, ends and D or L forms follow the SMILES beside them. *: point of attachment. C18 diacid = O=C(O)CCCCCCCCCCCCCCCCC(=O)*; γGlu = O=C(O)[C@H](CCC(=O)[*:2])N[*:1]; AEEA = NCCOCCOCC(=O)O

The first assay concerns the target T1, human natriuretic peptide receptor 2 (hNPR2) (Homo sapiens, UniProt P20594).
T1 construct: expressed in transfected cells; host or cells: HEK293 (ATCC CRL-1573), clone 35, co-transfected with pGloSensor-42F
T1 sequence (P20594 23-1047): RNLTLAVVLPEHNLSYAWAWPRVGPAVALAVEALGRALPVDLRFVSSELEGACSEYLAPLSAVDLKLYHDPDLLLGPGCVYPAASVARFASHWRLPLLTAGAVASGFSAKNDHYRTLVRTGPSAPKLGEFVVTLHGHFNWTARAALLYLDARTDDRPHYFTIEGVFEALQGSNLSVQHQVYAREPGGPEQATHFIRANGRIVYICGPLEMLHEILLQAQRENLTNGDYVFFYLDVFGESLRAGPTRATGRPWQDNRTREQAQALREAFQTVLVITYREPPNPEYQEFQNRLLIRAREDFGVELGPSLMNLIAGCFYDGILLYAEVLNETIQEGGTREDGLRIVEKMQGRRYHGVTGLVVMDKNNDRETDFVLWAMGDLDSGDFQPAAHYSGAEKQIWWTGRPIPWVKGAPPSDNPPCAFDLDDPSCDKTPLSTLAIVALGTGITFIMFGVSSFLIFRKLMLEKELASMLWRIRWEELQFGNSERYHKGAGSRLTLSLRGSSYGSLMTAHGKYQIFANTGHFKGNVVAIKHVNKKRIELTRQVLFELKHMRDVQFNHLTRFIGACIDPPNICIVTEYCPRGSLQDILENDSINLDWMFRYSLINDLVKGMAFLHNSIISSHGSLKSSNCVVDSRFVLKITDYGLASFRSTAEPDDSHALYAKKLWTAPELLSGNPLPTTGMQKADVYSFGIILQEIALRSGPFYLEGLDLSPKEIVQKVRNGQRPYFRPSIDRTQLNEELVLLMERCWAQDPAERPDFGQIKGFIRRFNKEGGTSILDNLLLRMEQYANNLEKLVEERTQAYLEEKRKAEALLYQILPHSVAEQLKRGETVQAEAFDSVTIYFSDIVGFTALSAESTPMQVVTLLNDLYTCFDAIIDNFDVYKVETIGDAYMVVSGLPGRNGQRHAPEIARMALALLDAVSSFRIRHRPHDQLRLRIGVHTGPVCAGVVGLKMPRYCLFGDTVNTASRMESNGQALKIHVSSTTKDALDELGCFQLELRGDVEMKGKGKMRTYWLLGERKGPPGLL
The assay can be described thus: In vitro hNPR2 activity assay (cGMP GloSensor reporter, HEK293). The class given is cell-based. Conditions: 0% HSA; HEK293-hNPR2/GloSensor cells. The procedure, abridged: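 Potency is the EC50 from a four-parameter logistic fit, also expressed relative to the in-plate CNP22 control (×100), with at least two replicates. Compounds (ten concentrations, […], HSA-free diluent with 1% OVA, 0.01% Tween20) were incubated 30 min at 37 °C on HEK293 cells co-expressing hNPR2 and a GloSensor cGMP luciferase. Luminescence detected with Bright-Glo.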
On to `CC[C@H](C)[C@@H]1NC(=O)[C@H](CCCNC(=N)N)NC(=O)[C@H](CC(=O)O)NC(=O)[C@H](CC(C)C)NC(=O)[C@H](CCCCN)NC(=O)[C@H](CC(C)C)NC(=O)CNC(=O)[C@H](Cc2ccccc2)NC(=O)[C@@H](NC(=O)CNC(=O)[C@H](CCCCN)NC(=O)[C@H](CO)NC(=O)[C@H](CC(C)C)NC(=O)CNC(=O)[C@H](CCCCN)NC(=O)[C@H](CCCCN)NC(=O)[C@H](CCC(N)=O)NC(=O)[C@H](C)NC(=O)CNC(=O)[C@H](Cc2c[nH]cn2)NC(=O)[C@H](CCC(=O)O)NC(=O)COCCOCCNC(=O)COCCOCCNC(=O)COCCOCCNC(=O)CC[C@H](NC(=O)CC[C@H](NC(=O)CCCCCCCCCCCCCCCCC(=O)O)C(=O)O)C(=O)O)CSSC[C@@H](C(=O)O)NC(=O)CNC(=O)[C@H](CC(C)C)NC(=O)CNC(=O)[C@H](CO)NC(=O)[C@H](CC(C)C)NC(=O)[C@H](CO)NC(=O)CNC1=O` [compound 1357], for which a half-maximal response (EC50) required 2.53 nM.

The assay is the same for the next values; noted with them: potency relative to CNP22 (0065).
Take `CC[C@H](C)[C@@H]1NC(=O)[C@H](CCCNC(=N)N)NC(=O)[C@H](CC(=O)O)NC(=O)[C@H](CC(C)C)NC(=O)[C@@H]2CCCN2C(=O)[C@H](CC(C)C)NC(=O)CNC(=O)[C@H](Cc2ccccc2)NC(=O)[C@@H](NC(=O)CNC(=O)[C@H](CO)NC(=O)[C@H](CO)NC(=O)[C@H](CC(C)C)NC(=O)CNC(=O)[C@@H](NC(=O)[C@H](Cc2c[nH]cn2)NC(=O)[C@H](CCC(N)=O)NC(=O)[C@H](C)NC(=O)CNC(=O)[C@H](Cc2c[nH]cn2)NC(=O)[C@H](Cc2ccc(O)cc2)NC(=O)[C@H](CCCCN)NC(=O)[C@H](CCCNC(=N)N)NC(=O)[C@H](C)NC(=O)COCCOCCNC(=O)COCCOCCNC(=O)CC[C@H](NC(=O)CCCCCCCCCCCCCCCCC(=O)O)C(=O)O)[C@@H](C)O)CSSC[C@@H](C(=O)O)NC(=O)CNC(=O)[C@H](CC(C)C)NC(=O)CNC(=O)[C@H](CO)NC(=O)[C@H](CC(C)C)NC(=O)[C@H](CO)NC(=O)CNC1=O` [compound 1350] ({C18 diacid-γGlu-AEEA-AEEA}-ARKYHGAQHTGLSSGCFGLPLDRIGSLSGLGC-OH; disulfide 16-32): the “hNPR2 0% HSA. [EC50% rel CNP]” value turned out to be 41.0%. Turning to `CC[C@H](C)[C@@H]1NC(=O)[C@H](CCCNC(=N)N)NC(=O)[C@H](CC(=O)O)NC(=O)[C@H](CC(C)C)NC(=O)[C@@H]2CCCN2C(=O)[C@H](CC(C)C)NC(=O)CNC(=O)[C@H](Cc2ccccc2)NC(=O)[C@@H](NC(=O)CNC(=O)[C@H](CCCCN)NC(=O)[C@H](CO)NC(=O)[C@H](CC(C)C)NC(=O)CNC(=O)[C@H](CCCCN)NC(=O)[C@H](CCCCN)NC(=O)[C@H](CCC(N)=O)NC(=O)[C@H](C)NC(=O)CNC(=O)[C@H](Cc2c[nH]cn2)NC(=O)[C@H](CCC(=O)O)NC(=O)COCCOCCNC(=O)COCCOCCNC(=O)COCCOCCNC(=O)CC[C@H](NC(=O)CCCCCCCCCCCCCCCCC(=O)O)C(=O)O)CSSC[C@@H](C(=O)O)NC(=O)CNC(=O)[C@H](CC(C)C)NC(=O)CNC(=O)[C@H](CO)NC(=O)[C@H](CC(C)C)NC(=O)[C@H](CO)NC(=O)CNC1=O` [compound 1353] ({C18 diacid-γGlu-AEEA-AEEA-AEEA}-EHGAQKKGLSKGCFGLPLDRIGSLSGLGC-OH; disulfide 13-29; C-terminus assumed), the “hNPR2 0% HSA. [EC50% rel CNP]” value stood at 9.0%.

Regarding `CC[C@H](C)[C@@H]1NC(=O)[C@H](CCCNC(=N)N)NC(=O)[C@H](CC(=O)O)NC(=O)[C@H](CC(C)C)NC(=O)[C@@H]2CCCN2C(=O)[C@H](CC(C)C)NC(=O)CNC(=O)[C@H](Cc2ccccc2)NC(=O)[C@@H](NC(=O)CNC(=O)[C@H](CO)NC(=O)[C@H](CO)NC(=O)[C@H](CC(C)C)NC(=O)CNC(=O)[C@H](CCCCN)NC(=O)[C@H](CCCCN)NC(=O)[C@H](CCC(N)=O)NC(=O)[C@H](C)NC(=O)CNC(=O)[C@H](CCCCN)NC(=O)[C@H](Cc2ccc(O)cc2)NC(=O)COCCOCCNC(=O)COCCOCCNC(=O)COCCOCCNC(=O)CC[C@H](NC(=O)CCCCCCCCCCCCCCCCC(=O)O)C(=O)O)CSSC[C@@H](C(=O)O)NC(=O)CNC(=O)[C@H](CC(C)C)NC(=O)CNC(=O)[C@H](CO)NC(=O)[C@H](CC(C)C)NC(=O)[C@H](CO)NC(=O)CNC1=O` [compound 1355] ({C18 diacid-γGlu-AEEA-AEEA-AEEA}-YKGAQKKGLSSGCFGLPLDRIGSLSGLGC-OH; disulfide 13-29), the “hNPR2 0% HSA. [EC50% rel CNP]” value is 28.2%. Take `CC[C@H](C)[C@@H]1NC(=O)[C@H](CCCNC(=N)N)NC(=O)[C@H](CC(=O)O)NC(=O)[C@H](CC(C)C)NC(=O)[C@H](CCCCN)NC(=O)[C@H](CC(C)C)NC(=O)CNC(=O)[C@H](Cc2ccccc2)NC(=O)[C@@H](NC(=O)CNC(=O)[C@H](CCCCN)NC(=O)[C@H](CO)NC(=O)[C@H](CC(C)C)NC(=O)CNC(=O)[C@H](CCCCN)NC(=O)[C@H](CCCCN)NC(=O)[C@H](CCC(N)=O)NC(=O)[C@H](C)NC(=O)CNC(=O)[C@H](Cc2c[nH]cn2)NC(=O)[C@H](CCC(=O)O)NC(=O)COCCOCCNC(=O)COCCOCCNC(=O)COCCOCCNC(=O)CC[C@H](NC(=O)CC[C@H](NC(=O)CCCCCCCCCCCCCCCCC(=O)O)C(=O)O)C(=O)O)CSSC[C@@H](C(=O)O)NC(=O)CNC(=O)[C@H](CC(C)C)NC(=O)CNC(=O)[C@H](CO)NC(=O)[C@H](CC(C)C)NC(=O)[C@H](CO)NC(=O)CNC1=O` [compound 1357]: the “hNPR2 0% HSA. [EC50% rel CNP]” value was 4.3%.

`CC[C@H](C)[C@@H]1NC(=O)[C@H](CCCNC(=N)N)NC(=O)[C@H](CC(=O)O)NC(=O)[C@H](CC(C)C)NC(=O)[C@@H]2CCCN2C(=O)[C@H](CC(C)C)NC(=O)CNC(=O)[C@H](Cc2ccccc2)NC(=O)[C@@H](NC(=O)CNC(=O)[C@H](CO)NC(=O)[C@H](CO)NC(=O)[C@@H](NC(=O)CNC(=O)[C@@H](NC(=O)[C@H](CCCCN)NC(=O)[C@H](CCC(N)=O)NC(=O)[C@H](C)NC(=O)CNC(=O)[C@H](Cc2c[nH]cn2)NC(=O)[C@H](CCC(=O)O)NC(=O)[C@H](CCCCN)NC(=O)[C@H](CCCNC(=N)N)NC(=O)[C@H](C)NC(=O)COCCOCCNC(=O)COCCOCCNC(=O)CC[C@H](NC(=O)CCCCCCCCCCCCCCCCC(=O)O)C(=O)O)[C@@H](C)O)C(C)C)CSSC[C@@H](C(=O)O)NC(=O)CNC(=O)[C@H](CC(C)C)NC(=O)CNC(=O)[C@H](CO)NC(=O)[C@H](CC(C)C)NC(=O)[C@H](CO)NC(=O)CNC1=O` [compound 1359] ({C18 diacid-γGlu-AEEA-AEEA}-ARKEHGAQKTGVSSGCFGLPLDRIGSLSGLGC-OH; disulfide 16-32; C-terminus assumed): the “hNPR2 0% HSA. [EC50% rel CNP]” value turned out to be 28.2%. On the same count and under the same terms, next, `CC[C@H](C)[C@@H]1NC(=O)[C@H](CCCNC(=N)N)NC(=O)[C@H](CC(=O)O)NC(=O)[C@H](CC(C)C)NC(=O)[C@@H]2CCCN2C(=O)[C@H](CC(C)C)NC(=O)CNC(=O)[C@H](Cc2ccccc2)NC(=O)[C@@H](NC(=O)CNC(=O)[C@H](CO)NC(=O)[C@H](CO)NC(=O)[C@@H](NC(=O)CNC(=O)[C@@H](NC(=O)[C@H](Cc2c[nH]cn2)NC(=O)[C@H](CCC(N)=O)NC(=O)[C@H](C)NC(=O)CNC(=O)[C@H](Cc2c[nH]cn2)NC(=O)[C@H](CCC(=O)O)NC(=O)[C@H](CCCCN)NC(=O)[C@H](CCCNC(=N)N)NC(=O)[C@H](C)NC(=O)COCCOCCNC(=O)COCCOCCNC(=O)CC[C@H](NC(=O)CCCCCCCCCCCCCCCCC(=O)O)C(=O)O)[C@@H](C)O)C(C)C)CSSC[C@@H](C(=O)O)NC(=O)CNC(=O)[C@H](CC(C)C)NC(=O)CNC(=O)[C@H](CO)NC(=O)[C@H](CC(C)C)NC(=O)[C@H](CO)NC(=O)CNC1=O` [compound 1360] ({C18 diacid-γGlu-AEEA-AEEA}-ARKEHGAQHTGVSSGCFGLPLDRIGSLSGLGC-OH; disulfide 16-32): 15.1%; `CC[C@H](C)[C@@H]1NC(=O)[C@H](CCCNC(=N)N)NC(=O)[C@H](CC(=O)O)NC(=O)[C@H](CC(C)C)NC(=O)[C@@H]2CCCN2C(=O)[C@H](CC(C)C)NC(=O)CNC(=O)[C@H](Cc2ccccc2)NC(=O)[C@@H](NC(=O)CNC(=O)[C@H](CO)NC(=O)[C@H](CO)NC(=O)[C@H](CC(C)C)NC(=O)CNC(=O)[C@H](CCCCN)NC(=O)[C@H](CCCCN)NC(=O)[C@H](CCC(N)=O)NC(=O)[C@H](C)NC(=O)CNC(=O)[C@H](CCC(=O)O)NC(=O)[C@H](Cc2ccc(O)cc2)NC(=O)[C@H](CO)NC(=O)[C@H](CCCNC(=N)N)NC(=O)[C@H](C)NC(=O)[C@H](CCC(=O)O)NC(=O)[C@@H]2CCCN2C(=O)[C@H](Cc2c[nH]cn2)NC(=O)[C@H](CCC(=O)O)NC(=O)[C@H](CCC(N)=O)NC(=O)COCCOCCNC(=O)COCCOCCNC(=O)CC[C@H](NC(=O)CCCCCCCCCCCCCCCCC(=O)O)C(=O)O)CSSC[C@@H](C(=O)O)NC(=O)CNC(=O)[C@H](CC(C)C)NC(=O)CNC(=O)[C@H](CO)NC(=O)[C@H](CC(C)C)NC(=O)[C@H](CO)NC(=O)CNC1=O` [compound 1380] ({C18 diacid-γGlu-AEEA-AEEA}-QEHPEARSYEGAQKKGLSSGCFGLPLDRIGSLSGLGC-OH; disulfide 21-37; C-terminus assumed): 15.7%.
